Experimental data as given in ChEMBL document CHEMBL4622868, “Design and synthesis of amphiphilic 2-hydroxybenzylphosphonium salts with antimicrobial and antitumor dual action” (Bioorg Med Chem Lett, 2020).
pIC50: −log10 of the molar value. Converted amounts (≈) assume the structure as drawn. The source made the active and inactive calls. The calls are words filed in the database; no cut-off is given here. Non-standard residues stand in square brackets, D forms with d. Residues, ends and D or L forms follow the SMILES beside them. Orn = NCCC[C@H](N)C(=O)O

Key:
[1] = test system: Staphylococcus aureus; assay: Antibacterial activity against Staphylococcus aureus ATCC 209p; assay type: functional
[2] = test system: Staphylococcus aureus; assay: Bactericidal activity against Staphylococcus aureus ATCC 209p; assay type: functional
[3] = test system: Bacillus cereus; assay: Antibacterial activity against Bacillus cereus; assay type: functional
[4] = test system: Bacillus cereus; assay: Bactericidal activity against Bacillus cereus; assay type: functional
[5] = test system: Trichophyton mentagrophytes; assay: Antifungal activity against Trichophyton mentagrophytes; assay type: functional
[6] = test system: Trichophyton mentagrophytes; assay: Fungicidal activity against Trichophyton mentagrophytes; assay type: functional
[7] = test system: Candida albicans; assay: Antifungal activity against Candida albicans; assay type: functional
[8] = test system: Candida albicans; assay: Fungicidal activity against Candida albicans; assay type: functional
[9] = test system: Staphylococcus aureus; assay: Antibacterial activity against clinical isolate amoxicillin and ciprofloxacin resistance Staphylococcus aureus; assay type: functional
[10] = test system: Staphylococcus aureus; assay: Bactericidal activity against clinical isolate amoxicillin and ciprofloxacin resistance Staphylococcus aureus; assay type: functional
[11] = test system: Staphylococcus aureus; assay: Antibacterial activity against clinical isolate amoxicillin resistance Staphylococcus aureus; assay type: functional
[12] = test system: Staphylococcus aureus; assay: Bactericidal activity against clinical isolate amoxicillin resistance Staphylococcus aureus; assay type: functional
[13] = Biosurfactant activity assessed as critical micelle concentration of compound by tensiometry analysis; assay type: functional
[14] = Biosurfactant activity assessed as Critical micelle concentration of compound by conductometry analysis; assay type: physicochemical
[15] = Hemolytic activity against RBC (unknown origin) at 480 uM; assay type: ADME, cell-based, Erythrocyte; conditions: red blood cells (erythrocytes); read-out: Activity
[16] = Hemolytic activity against RBC (unknown origin) at 240 uM; assay type: ADME, cell-based, Erythrocyte; conditions: red blood cells (erythrocytes); read-out: Activity
[17] = Hemolytic activity against RBC (unknown origin) at 120 uM; assay type: ADME, cell-based, Erythrocyte; conditions: red blood cells (erythrocytes); read-out: Activity
[18] = Hemolytic activity against RBC (unknown origin) at 60 uM; assay type: ADME, cell-based, Erythrocyte; conditions: red blood cells (erythrocytes); read-out: Activity
[19] = Hemolytic activity against RBC (unknown origin) at 40 uM; assay type: ADME, cell-based, Erythrocyte; conditions: red blood cells (erythrocytes); read-out: Activity
[20] = Hemolytic activity against RBC (unknown origin) at 20 uM; assay type: ADME, cell-based, Erythrocyte; conditions: red blood cells (erythrocytes); read-out: Activity
[21] = Hemolytic activity against RBC (unknown origin) at 10 uM; assay type: ADME, cell-based, Erythrocyte; conditions: red blood cells (erythrocytes); read-out: Activity
[22] = Hemolytic activity against RBC (unknown origin) at 5 uM; assay type: ADME, cell-based, Erythrocyte; conditions: red blood cells (erythrocytes); read-out: Activity
[23] = Hemolytic activity against RBC (unknown origin) at 1 uM; assay type: ADME, cell-based, Erythrocyte; conditions: red blood cells (erythrocytes); read-out: Activity
[24] = test system: M-HeLa; assay: Cytotoxicity against human M-HeLa cells; assay type: functional, cell-based
[25] = test system: MCF7; assay: Cytotoxicity against human MCF7 cells; assay type: functional, cell-based
[26] = test system: HepG2; assay: Cytotoxicity against human HepG2 cells; assay type: functional, cell-based
[27] = test system: PANC-1; assay: Cytotoxicity against human PANC1 cells; assay type: functional, cell-based
[28] = Cytotoxicity against human Chang cells; assay type: cell-based
[29] = Selectivity index, ratio of IC50 for human Chang cells to IC50 for human M-HeLa cells
[30] = Selectivity index, ratio of IC50 for human Chang cells to IC50 for human MCF7 cells
[31] = Selectivity index, ratio of IC50 for human Chang cells to IC50 for human HepG2 cells
[32] = Selectivity index, ratio of IC50 for human Chang cells to IC50 for human PANC1 cells
[33] = test system: Staphylococcus aureus; assay: Antibacterial activity against Staphylococcus aureus ATCC 209p assessed as increase in crystal violet uptake at 2 uM incubated for 30 mins (reference value: 1.8 %); assay type: functional

Compound | MIC [1] | MBC [2] | MIC [3] | MBC [4] | MIC [5] | MFC [6] | MIC [7] | MFC [8] | MIC [9] | MBC [10] | MIC [11] | MBC [12] | hemolysis at 480 µM [15] | hemolysis at 240 µM [16] | hemolysis at 120 µM [17] | hemolysis at 60 µM [18] | hemolysis at 40 µM [19] | hemolysis at 20 µM [20] | hemolysis at 10 µM [21] | pIC50 [28] | further results
CCCCCCCCCCCCCCCCCC[P+](Cc1ccccc1O)(c1ccccc1)c1ccccc1.[Cl-] | 108 µM | 215 µM | 108 µM | 215 µM | inactive | inactive | inactive | inactive | inactive | inactive | inactive | inactive | 100% | 100% | 15.6% | 2.5% | 1.4% | 1.2% | 0% | 4.16 | CMC [13]: 0.04 mM; CMC [14]: 0.04 mM; hemolysis at 5 µM [22]: 0%; hemolysis at 1 µM [23]: 0%; pIC50 [24]: 4.17; pIC50 [25]: 4.31; pIC50 ([26]; read-out: IC50): 4.14; pIC50 [27]: 4.19; Ratio IC50 [29]: 1; Ratio IC50 [30]: 1.4; Ratio IC50 [31]: 0.94; Ratio IC50 [32]: 1.1
O=C(O)c1cn(C2CC2)c2cc(N3CCNCC3)c(F)cc2c1=O [CIPROFLOXACIN] | 0.7 µM (≈ 0.232 µg/mL) | 1.5 µM (≈ 0.497 µg/mL) | 0.7 µM (≈ 0.232 µg/mL) | 1.5 µM (≈ 0.497 µg/mL) |  |  |  |  |  |  |  |  |  |  |  |  |  |  |  |  | 
CCCCCCCC[P+](Cc1ccccc1O)(c1ccccc1)c1ccccc1.[Cl-] | 8.8 µM | 8.8 µM | 17.7 µM | 17.7 µM | 284 µM | inactive | 284 µM | inactive | 35.4 µM | 142 µM | 17.7 µM | 35.4 µM | 8.5% | 4.8% | 2.3% | 0.6% | 0.4% | 0% | 0% | 4.33 | hemolysis at 5 µM [22]: 0%; hemolysis at 1 µM [23]: 0%; pIC50 [24]: 5.43; pIC50 [25]: 4.90; pIC50 ([26]; read-out: IC50): 4.59; pIC50 [27]: 4.90; Ratio IC50 [29]: 12.5; Ratio IC50 [30]: 3.7; Ratio IC50 [31]: 1.8; Ratio IC50 [32]: 3.7
CC(=O)N1CCN(c2ccc(OCC3COC(Cn4ccnc4)(c4ccc(Cl)cc4Cl)O3)cc2)CC1 (stereo not given) [KETOCONAZOLE] |  |  |  |  | 7.3 µM (≈ 3.88 µg/mL) | 16.6 µM (≈ 8.82 µg/mL) | 7.3 µM (≈ 3.88 µg/mL) | 16.6 µM (≈ 8.82 µg/mL) |  |  |  |  |  |  |  |  |  |  |  |  | 
CC/C(=C(\c1ccccc1)c1ccc(OCCN(C)C)cc1)c1ccccc1 [TAMOXIFEN] |  |  |  |  |  |  |  |  |  |  |  |  |  |  |  |  |  |  |  | 4.34 | pIC50 [26]: 4.63
COc1cccc2c1C(=O)c1c(O)c3c(c(O)c1C2=O)C[C@@](O)(C(=O)CO)C[C@@H]3O[C@H]1C[C@H](N)[C@H](O)[C@H](C)O1 [DOXORUBICIN] |  |  |  |  |  |  |  |  |  |  |  |  |  |  |  |  |  |  |  | 5.52 | pIC50 ([26]; read-out: IC50): 5.48; pIC50 [27]: 5.49
CCCCCC[P+](Cc1ccccc1O)(c1ccccc1)c1ccccc1.[Cl-] | 18.9 µM | 37.8 µM | 37.8 µM | 152 µM | 606 µM | inactive | 606 µM | inactive | 75.6 µM | 302 µM | 37.8 µM | 151 µM | 4.8% | 2.5% | 0.4% | 0.3% | 0.2% | 0.2% | 0% | 4.19 | hemolysis at 5 µM [22]: 0%; hemolysis at 1 µM [23]: 0%; pIC50 [24]: 4.30; pIC50 [25]: 4.07; pIC50 ([26]; read-out: IC50): 4.08; pIC50 [27]: 4.09; Ratio IC50 [29]: 1.3; Ratio IC50 [30]: 0.76; Ratio IC50 [31]: 0.78; Ratio IC50 [32]: 0.79
CC1(C)S[C@@H]2[C@H](NC(=O)[C@H](N)c3ccc(O)cc3)C(=O)N2[C@H]1C(=O)O [AMOXICILLIN] |  |  |  |  |  |  |  |  | 94.4 µM (≈ 34.5 µg/mL) | 94.4 µM (≈ 34.5 µg/mL) | 85.6 µM (≈ 31.3 µg/mL) | 85.6 µM (≈ 31.3 µg/mL) |  |  |  |  |  |  |  |  | 
CCCCCCCCCCCCCCCC[P+](Cc1ccccc1O)(c1ccccc1)c1ccccc1.[Cl-] | 3.4 µM | 28.2 µM | 14.1 µM | 452 µM | 56.6 µM | inactive | 56.6 µM | inactive | 28.2 µM | inactive | 14.1 µM | 113 µM | 100% | 100% | 100% | 98% | 2.5% | 2.1% | 0.9% | 4.34 | hemolysis at 5 µM [22]: 0.3%; hemolysis at 1 µM [23]: 0.3%; pIC50 [24]: 5.49; pIC50 [25]: 4.88; pIC50 ([26]; read-out: IC50): 4.90; pIC50 [27]: 4.59; Ratio IC50 [29]: 14.1; Ratio IC50 [30]: 3.4; Ratio IC50 [31]: 3.6; Ratio IC50 [32]: 1.8
CCCCCCCCCCCCCC[P+](Cc1ccccc1O)(c1ccccc1)c1ccccc1.[Cl-] | 3.6 µM | 14.8 µM | 3.6 µM | 478 µM | 478 µM | inactive | 478 µM | inactive | 7.2 µM | 28.8 µM | 7.2 µM | 28.8 µM | 100% | 100% | 100% | 74% | 0.3% | 0% | 0% | 4.37 | hemolysis at 5 µM [22]: 0%; hemolysis at 1 µM [23]: 0%; pIC50 [24]: 5.46; pIC50 [25]: 5.18; pIC50 ([26]; read-out: IC50): 5.18; pIC50 [27]: 4.60; Ratio IC50 [29]: 12.1; Ratio IC50 [30]: 6.4; Ratio IC50 [31]: 6.4; Ratio IC50 [32]: 1.7
CCCCCCCCCC[P+](Cc1ccccc1O)(c1ccccc1)c1ccccc1.[Cl-] | 1 µM | 4.1 µM | 1.9 µM | 4.1 µM | 16.6 µM | 16.6 µM | 16.6 µM | 16.6 µM | 8.2 µM | 32.8 µM | 8.2 µM | 16.4 µM | 16.4% | 9.6% | 5.9% | 2.8% | 2.3% | 1.3% | 0.8% | 4.34 | Activity [33]: 24 - 82.7%; hemolysis at 5 µM [22]: 0%; hemolysis at 1 µM [23]: 0%; pIC50 [24]: 5.47; pIC50 [25]: 4.88; pIC50 ([26]; read-out: IC50): 4.91; pIC50 [27]: 4.58; Ratio IC50 [29]: 13.4; Ratio IC50 [30]: 3.5; Ratio IC50 [31]: 3.7; Ratio IC50 [32]: 1.7
CC1COc2c(N3CCN(C)CC3)c(F)cc3c(=O)c(C(=O)O)cn1c23 (stereo not given) [OFLOXACIN] | 2.4 µM (≈ 0.867 µg/mL) | 2.4 µM (≈ 0.867 µg/mL) | 4.1 µM (≈ 1.48 µg/mL) | 8.5 µM (≈ 3.07 µg/mL) |  |  |  |  |  |  |  |  |  |  |  |  |  |  |  |  | 
CCCCCCC[P+](Cc1ccccc1O)(c1ccccc1)c1ccccc1.[Cl-] | 18.3 µM | 18.3 µM | 36.6 µM | 146 µM | 586 µM | inactive | 586 µM | inactive | 36.6 µM | 146 µM | 73.2 µM | 73.2 µM | 3.6% | 1.9% | 0.4% | 0.3% | 0.3% | 0.3% | 0.2% | 4.38 | hemolysis at 5 µM [22]: 0%; hemolysis at 1 µM [23]: 0%; pIC50 [24]: 5.26; pIC50 [25]: 4.48; pIC50 ([26]; read-out: IC50): 4.58; pIC50 [27]: 4.40; Ratio IC50 [29]: 7.6; Ratio IC50 [30]: 1.3; Ratio IC50 [31]: 1.6; Ratio IC50 [32]: 1.04
C=CCCCC[P+](Cc1ccccc1O)(c1ccccc1)c1ccccc1 | 609 µM | inactive | inactive | inactive | inactive | inactive | inactive | inactive | inactive | inactive | inactive | inactive |  |  |  |  |  |  |  |  | 
CC(C)C[C@@H]1NC(=O)[C@H](CCCN)NC(=O)[C@H](C(C)C)NC(=O)[C@@H]2CCCN2C(=O)[C@@H](Cc2ccccc2)NC(=O)[C@H](CC(C)C)NC(=O)[C@H](CCCN)NC(=O)[C@H](C(C)C)NC(=O)[C@@H]2CCCN2C(=O)[C@@H](Cc2ccccc2)NC1=O (cyclo(L[dF]PV[Orn]L[dF]PV[Orn])) |  |  |  |  |  |  |  |  |  |  |  |  | 100% | 100% | 100% | 99% | 98% | 24% | 1.5% |  | hemolysis at 5 µM [22]: 0.5%; hemolysis at 1 µM [23]: 0%
